This is an account of results in patent US9403832B2, “Pyrazolo[1,5-a]pyrimidine-based compounds, compositions comprising them, and methods of their use” (Lexicon Pharmaceuticals, Inc., priority 2012, dated 2016).

Experiment [1] concerns the target T1, AAK1 (Homo sapiens, UniProt Q2M2I8).
T1 construct: NP_055726.2
As to the kind of experiment: HEK281 cell-based assay (CBA). As to conditions: HEK293F cells transfected with full length human AAK1 and AP2M1; phospho-mu2 Western blot; 3 hours incubation. How it is done:
HEK293F cells were cultured in media containing DMEM (Gibco, cat. #11965), 10% FBS (SAFC Biosciences, cat. #12103C), 1× GPS (glutamine, penicillin and streptomycin). On day one, cells were plated on a 10 cm dish so that they are ˜80% confluent at time of transfection. Roughly 12 million cells were in a 10 cm dish at time of transfection. On day two, each dish was transfected with 48 ug DNA and 144 ul Lipofectamine 2000 (Invitrogen, cat. #11668-019). The DNA was comprised of a mixture (per 10 cm dish) containing 3 ug AAK1/HA/pIRES (full length human, NCBI accession no. NP_055726.2), 45 μg Flag/AP2MI/pcDNA (full length human), and 1.5 ml OPTI-MEM. The Lipofectamine 2000 is made up of a mixture (per 10 cm dish) containing 144 μl Lipofectamine 2000 and 1.5 ml OPTI-MEM. Each mixture was transferred to individual 15 ml tubes and incubated at RT for 5 minutes, and then the two mixes were combined and incubated at RT for 20 minutes.
Growth media was then aspirated from each 10 cm plate and replaced with 10 ml of DMEM+10% FBS (no GPS). Finally, 3 ml DNA/Lipofectamine mix was added to each 10 cm dish and mix gently followed by incubate of plate overnight at 37° C. and 5% CO2.
On day three, compounds were diluted in 100% DMSO at 1000× final concentration, followed by 3-fold serial dilutions for a total of 5 concentrations tested. Four compounds were tested per 10 cm dish. One ul of each compound dilution was then pipetted into a deep-well, 96-well plate, followed by addition of 500 μl DMEM+0.5% FBS into each well for a 2× final concentration of each compound. Cells were resuspended in a 10 cm dish by simple pipetting (HEK293 cells come off the plate that easy at this point) and then transferred to a 50 ml conical tube and pelleted by centrifugation at 1000 rpm for 5 min. Cell pellets were then resuspended in 2.75 ml DMEM+0.5% FBS per 10 cm dish and 100 μl of cell suspension transferred into each well of 96-well TC plate. Finally, 100 μl of 2× compound diluted in DMEM+0.5% FBS was then added into wells containing cell suspension for a 1× final concentration. Plates were then incubated at 37° C. and 5% CO2 for 3 hours followed by transferring of cell suspensions from each well into 12-tube PCR strips. The PCR strips were spun in a tip rack at 1000 rpm for 5 minutes to pellet cells and media was then removed by pipetting without disturbing the cell pellet.
To prepare for Western Blot analysis, cell pellets were resuspend in 40 ul 1× LDS-PAGE sample buffer (Invitrogen, cat.# NP0008)+2× Halt phophatase and protease inhibitor cocktail (Thermo Scientific, cat. #1861284), followed by sonicating each with microtip sonicator set at 5 for 8-10 seconds. Five ul of 10× NuPage Sample Reducing Agent (with 50 mM DTT) was to each sample followed by heat denaturing at 70 C for 10 min on PCR machine. A total of 10 μl per sample was loaded into each lane of a 4-20% Tris-Glycine Criterion 26-well gel (Biorad, cat. #345-0034) for the phospho-mu2 blot and 10 μl per lane in a 4-12% Bis-Tris (+MES buffer) NuPAGE 26-well gel (Invitrogen, cat.# WG1403BX10) for the mu2 blot. For controls, 2 ng of phospho-mu2 or 20 ng mu2/Flag proteins were loaded in the last well of each gel. After SDS-PAGE, samples on each gel were transferred to PVDF membrane using an iBlot and membranes were blocked for one hour in TBST+5% milk, followed by wash 3× for 5-10 min with TBST. Criterion gels were probed with rabbit anti-phospho-mu2 (1:5000; a rabbit polyclonal antibody produced by New England Peptide and affinity purified at Lexicon) in TBST+5% BSA, whereas, NuPAGE gels were probed with mouse anti-Flag (1:500; Sigma, cat.# F1804) in TBST+5% milk, and these primary antibodies were incubated overnight at 4° C. on a rocker.
(In general: In western blotting, separated proteins are transferred to a membrane and probed.)

For experiment [2], the target named is T1, AAK1. Put plainly: P81 filter plate assay. The experiment is classed as biochemical. As to conditions: full-length human AAK1, Mu2 substrate, 33P-ATP. Summed up: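 Full-length human AAK1 (0.2 nM, 2×) was pre-incubated 10 min at RT with compounds (top concentration 96 μM in the dilution plate), then reacted 1 h at RT with full-length human Mu2 (0.2 μM, 2×), cold ATP (2 μM, 2×) and ³³P-ATP. Reactions were stopped with phosphoric acid and captured on P81 filters for scintillation counting.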

T1 sequence (Q2M2I8 1-863 isoform Q2M2I8-2): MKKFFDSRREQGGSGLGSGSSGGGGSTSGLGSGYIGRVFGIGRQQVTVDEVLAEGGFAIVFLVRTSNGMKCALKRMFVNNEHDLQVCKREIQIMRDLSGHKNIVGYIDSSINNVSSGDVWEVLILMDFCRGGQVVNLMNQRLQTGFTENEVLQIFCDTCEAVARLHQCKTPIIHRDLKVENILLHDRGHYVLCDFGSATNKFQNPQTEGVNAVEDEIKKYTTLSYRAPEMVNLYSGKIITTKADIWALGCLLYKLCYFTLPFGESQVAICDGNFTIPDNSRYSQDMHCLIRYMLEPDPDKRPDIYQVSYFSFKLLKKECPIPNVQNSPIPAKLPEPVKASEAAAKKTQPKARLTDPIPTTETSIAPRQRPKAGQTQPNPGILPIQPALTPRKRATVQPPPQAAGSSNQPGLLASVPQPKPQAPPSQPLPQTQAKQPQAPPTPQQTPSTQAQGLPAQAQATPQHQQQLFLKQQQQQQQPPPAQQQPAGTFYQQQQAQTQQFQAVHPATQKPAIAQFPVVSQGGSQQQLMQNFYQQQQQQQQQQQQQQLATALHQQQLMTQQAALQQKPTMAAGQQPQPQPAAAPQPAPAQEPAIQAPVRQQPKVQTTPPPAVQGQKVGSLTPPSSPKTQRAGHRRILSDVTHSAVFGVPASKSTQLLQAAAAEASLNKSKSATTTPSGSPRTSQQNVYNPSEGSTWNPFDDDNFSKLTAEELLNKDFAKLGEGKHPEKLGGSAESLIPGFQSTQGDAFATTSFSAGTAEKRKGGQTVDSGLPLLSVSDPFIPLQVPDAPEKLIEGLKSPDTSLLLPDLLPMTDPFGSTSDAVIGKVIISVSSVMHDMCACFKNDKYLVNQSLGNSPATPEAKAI

By IC50 is commonly meant the concentration that inhibits the measured activity by half. Read a low IC50 as greater potency. In the case of `CCCOC(=O)N1CCN(c2ccn3ncc(-c4cc(F)cnc4OC)c3n2)CC1` [propyl 4-(3-(5-fluoro-2-methoxypyridin-3-yl)pyrazolo[1,5-a]pyrimidin-5-yl)piperazine-1-carboxylate], the IC50 against AAK1 [1] was at most 100 nM; against AAK1 [2], at most 10 nM.

`COc1ncccc1-c1cnn2ccc(N3CCN(C(=O)[C@@H](N)C(C)(C)C)CC3)nc12` [(S)-2-amino-1-(4-(3-(2-methoxypyridin-3-yl)pyrazolo[1,5-a]pyrimidin-5-yl)piperazin-1-yl)-3,3-dimethylbutan-1-one]: the IC50 on AAK1 [1] and at AAK1 [2] was at most 10 nM in each case.

`COc1nc(C)ccc1-c1cnn2ccc(N3CC[C@H](N(C)C(=O)OC(C)C)C3)nc12` [(S)-isopropyl (1-(3-(2-d3-methoxy-6-methylpyridin-3-yl)pyrazolo[1,5-a]pyrimidin-5-yl)pyrrolidin-3-yl)(methyl)carbamate]: the IC50 against AAK1 [1] is at most 100 nM; on AAK1 [2], at most 10 nM.

As for `COc1ccccc1-c1cnn2ccc(N3CCN(C(=O)[C@@H](N)C(C)(C)C)CC3)nc12` [(S)-2-amino-1-(4-(3-(2-methoxyphenyl)pyrazolo[1,5-a]pyrimidin-5-yl)piperazin-1-yl)-3,3-dimethylbutan-1-one], the half-maximal inhibitory concentration (IC50) at AAK1 [1] and against AAK1 [2] was at most 10 nM each time.

For the molecule `COc1ncccc1-c1cnn2ccc(N3CCN(C(=O)[C@@H](N)[C@@H](C)OC)CC3)nc12` [(2S,3R)-2-amino-3-methoxy-1-(4-(3-(2-methoxypyridin-3-yl)pyrazolo[1,5-a]pyrimidin-5-yl)piperazin-1-yl)butan-1-one], the concentration for half-maximal inhibition (IC50) on AAK1 [1] is at most 100 nM; on AAK1 [2] it was at most 10 nM.

As to `CCOC(=O)N1CCC[C@H]1CNc1ccn2ncc(-c3ccccc3OC)c2n1` [(S)-ethyl 2-(((3-(2-methoxyphenyl)pyrazolo[1,5-a]pyrimidin-5-yl)amino)methyl)pyrrolidine-1-carboxylate], the IC50 on AAK1 [1] and at AAK1 [2] was at most 10 nM in each case.

On to `COc1ncccc1-c1cnn2ccc(N3CCN(C(=O)N4CCCCC4)CC3)nc12` [(4-(3-(2-methoxypyridin-3-yl)pyrazolo[1,5-a]pyrimidin-5-yl)piperazin-1-yl)(piperidin-1-yl)methanone], for which the concentration for half-maximal inhibition (IC50) on AAK1 [1] is at most 100 nM; on AAK1 [2] it was at most 10 nM.

For `COc1ncc(C)cc1-c1cnn2ccc(N3CCN(C(=O)OC(C)C)CC3)nc12` [isopropyl 4-(3-(2-methoxy-5-methylpyridin-3-yl)pyrazolo[1,5-a]pyrimidin-5-yl)piperazine-1-carboxylate], the IC50 against AAK1 [1] and against AAK1 [2] was at most 10 nM in each case.

On to `CN[C@@H](CC(C)C)C(=O)N1CCN(c2ccn3ncc(-c4cccnc4OC)c3n2)CC1` [(S)-1-(4-(3-(2-methoxypyridin-3-yl)pyrazolo[1,5-a]pyrimidin-5-yl)piperazin-1-yl)-4-methyl-2-(methylamino)pentan-1-one], for which the IC50 against AAK1 [1] and against AAK1 [2] was at most 10 nM in each case.

In the case of `COc1ccc(F)cc1-c1cnn2ccc(N3CCN(C(=O)[C@@H](N)C(C)C)CC3)nc12` [(S)-2-amino-1-(4-(3-(5-fluoro-2-methoxyphenyl)pyrazolo[1,5-a]pyrimidin-5-yl)piperazin-1-yl)-3-methylbutan-1-one], the IC50 at AAK1 [1] and on AAK1 [2] was at most 10 nM throughout.

As for `CC(C)[C@H](N)C(=O)N1CCN(c2ccn3ncc(-c4ccccc4)c3n2)CC1` [(S)-2-amino-3-methyl-1-(4-(3-phenylpyrazolo[1,5-a]pyrimidin-5-yl)piperazin-1-yl)butan-1-one], the IC50 on AAK1 [1] and at AAK1 [2] was at most 10 nM throughout.

With `COc1ncccc1-c1cnn2ccc(N3CCN(C(=O)[C@@H](N)C(C)C)CC3)nc12` [(S)-2-amino-1-(4-(3-(2-methoxypyridin-3-yl)pyrazolo[1,5-a]pyrimidin-5-yl)piperazin-1-yl)-3-methylbutan-1-one], the 50% inhibitory concentration (IC50) on AAK1 [1] and at AAK1 [2] was at most 10 nM each time.

For `COc1ncc(F)cc1-c1cnn2ccc(N3CCN(C(=O)O[C@@H]4CCOC4)CC3)nc12` [(R)-tetrahydrofuran-3-yl 4-(3-(5-fluoro-2-methoxypyridin-3-yl)pyrazolo[1,5-a]pyrimidin-5-yl)piperazine-1-carboxylate], the IC50 on AAK1 [1] and against AAK1 [2] was at most 10 nM throughout.

As to `COc1ncccc1-c1cnn2ccc(N3CC[C@H](N(C)C(=O)OC(C)C)C3)nc12` [(S)-isopropyl (1-(3-(2-methoxypyridin-3-yl)pyrazolo[1,5-a]pyrimidin-5-yl)pyrrolidin-3-yl)(methyl)carbamate], the half-maximal inhibitory concentration (IC50) against AAK1 [1] was at most 100 nM; on AAK1 [2] it was at most 10 nM.

Regarding `COc1nc(C)ccc1-c1cnn2ccc(N3CCN(C(=O)O[C@@H]4CCOC4)CC3)nc12` [(R)-tetrahydrofuran-3-yl 4-(3-(2-methoxy-6-methylpyridin-3-yl)pyrazolo[1,5-a]pyrimidin-5-yl)piperazine-1-carboxylate], the IC50 against AAK1 [1] was at most 100 nM; against AAK1 [2] it was at most 10 nM.

In the case of `COc1ncccc1-c1cnn2ccc(N3CCN(C(=O)OCC(F)(F)F)CC3)nc12` [2,2,2-trifluoroethyl 4-(3-(2-methoxypyridin-3-yl)pyrazolo[1,5-a]pyrimidin-5-yl)piperazine-1-carboxylate], the IC50 at AAK1 [1] and against AAK1 [2] was at most 10 nM throughout.

Consider `CCCOC(=O)N1CCN(c2ccn3ncc(-c4cccnc4OC)c3n2)CC1` [propyl 4-(3-(2-methoxypyridin-3-yl)pyrazolo[1,5-a]pyrimidin-5-yl)piperazine-1-carboxylate], for which the figures for the IC50 against AAK1 [1] and on AAK1 [2] were at most 100 nM and at most 10 nM, respectively.

Turning to `[2H]C1([2H])N(C(=O)OCCOC)C([2H])([2H])C([2H])([2H])N(c2ccn3ncc(-c4cccnc4OC)c3n2)C1([2H])[2H]` [2-methoxyethyl 4-(3-(2-methoxypyridin-3-yl)pyrazolo[1,5-a]pyrimidin-5-yl)-d8-piperazine-1-carboxylate], the IC50 was at most 100 nM on AAK1 [1] and at most 10 nM against AAK1 [2].

In the case of `[2H]C1([2H])N(C(=O)OC(C)C)C([2H])([2H])C([2H])([2H])N(c2ccn3ncc(-c4ccc(C)nc4OC)c3n2)C1([2H])[2H]` [isopropyl 4-(3-(2-methoxy-6-methylpyridin-3-yl)pyrazolo[1,5-a]pyrimidin-5-yl)-d8-piperazine-1-carboxylate], the IC50 against AAK1 [1] and against AAK1 [2] was at most 10 nM in each case.

Regarding `COCCOC(=O)N1CCN(c2ccn3ncc(-c4cc(F)ccc4OC)c3n2)CC1` [2-methoxyethyl 4-(3-(5-fluoro-2-methoxyphenyl)pyrazolo[1,5-a]pyrimidin-5-yl)piperazine-1-carboxylate], the IC50 on AAK1 [1] and against AAK1 [2] was at most 10 nM throughout.

Take `Cc1ccc(-c2cnn3ccc(N4CCN(C(=O)[C@@H](N)C(C)C)CC4)nc23)c(F)c1` [(S)-2-amino-1-(4-(3-(2-fluoro-4-methylphenyl)pyrazolo[1,5-a]pyrimidin-5-yl)piperazin-1-yl)-3-methylbutan-1-one]: the IC50 at AAK1 [1] is at most 100 nM; against AAK1 [2], at most 10 nM.
